Data on one substance can be found in US11708562B2, “Differentiation of human embryonic stem cells” (Janssen Biotech, Inc., priority 2006, dated 2023).

The test system of the assay is human embryonic stem cell line H1. Nature of the assay: FACS protein expression following 5-day activin A treatment (Table IIC). Format: cell-based. The settings on record: 5-day AA treatment. As for the experimental part: The level of expression of definitive endoderm markers was examined by PCR (FIGS. 1A and 1B), FACS (results summarized in Table I), and immunohistochemistry (FIGS. 2A, 2B and 2C).
Adhered cells were removed from culture plates by five-minute incubation with TrypLE™ Express solution (Invitrogen, CA). Released cells were resuspended in human embryonic stem cell culture medium and recovered by centrifugation, followed by washing and resuspending the cells in a staining buffer consisting of 2% BSA, 0.05% sodium azide in PBS (Sigma, MO). As appropriate, the cells were Fc-receptor blocked for 15 minutes using a 0.1% γ-globulin (Sigma) solution. […] Controls included appropriate isotype matched antibodies, unstained cells, and cells stained only with secondary conjugated antibody. All incubations with antibodies were performed for 30 mins at 4° C. after which the cells were washed with the staining buffer. Samples that were stained with unconjugated primary antibodies were incubated for an additional 30 mins at 4° C. with secondary conjugated PE or -APC labeled antibodies. See Table I for a list of secondary antibodies used. Washed cells were pelleted and resuspended in the staining buffer, and the cell surface molecules were identified using a FACS Array (BD Biosciences) instrument, collecting at least 10,000 events.

Turning to “Activin A: a member of the TGFβ superfamily; growth factor (R&D Systems) used to differentiate human embryonic stem cells”, the “CXCR4+ cells (FACS)” value was determined as 92.78%, the “CXCR4+/C-kit+ cells (FACS)” value worked out at 92.90%, the “CXCR4+/CD9+ cells (FACS)” value turned out to be 7.03% and the “CXCR4+/CD99+ cells (FACS)” value is listed as 88.78%. Moreover, the “CXCR4+/EPCAM cells (FACS)” value stood at 87.99%.
